Here are results for one compound from ChEMBL document CHEMBL4152374, “A new phenolic series of indenopyridinone as topoisomerase inhibitors: Design, synthesis, and structure-activity relationships” (Bioorg Med Chem, 2018).

In test [1] the target is DNA topoisomerase 2-alpha (Homo sapiens) (UniProt P11388). The experiment in a line: Inhibition of human topoisomerase 2-alpha using supercoiled pBR322 plasmid DNA as substrate at 100 uM after 30 mins by agarose gel electrophoresis method relative to etoposide.
Sequence of DNA topoisomerase 2-alpha (Homo sapiens) (P11388 whole entry): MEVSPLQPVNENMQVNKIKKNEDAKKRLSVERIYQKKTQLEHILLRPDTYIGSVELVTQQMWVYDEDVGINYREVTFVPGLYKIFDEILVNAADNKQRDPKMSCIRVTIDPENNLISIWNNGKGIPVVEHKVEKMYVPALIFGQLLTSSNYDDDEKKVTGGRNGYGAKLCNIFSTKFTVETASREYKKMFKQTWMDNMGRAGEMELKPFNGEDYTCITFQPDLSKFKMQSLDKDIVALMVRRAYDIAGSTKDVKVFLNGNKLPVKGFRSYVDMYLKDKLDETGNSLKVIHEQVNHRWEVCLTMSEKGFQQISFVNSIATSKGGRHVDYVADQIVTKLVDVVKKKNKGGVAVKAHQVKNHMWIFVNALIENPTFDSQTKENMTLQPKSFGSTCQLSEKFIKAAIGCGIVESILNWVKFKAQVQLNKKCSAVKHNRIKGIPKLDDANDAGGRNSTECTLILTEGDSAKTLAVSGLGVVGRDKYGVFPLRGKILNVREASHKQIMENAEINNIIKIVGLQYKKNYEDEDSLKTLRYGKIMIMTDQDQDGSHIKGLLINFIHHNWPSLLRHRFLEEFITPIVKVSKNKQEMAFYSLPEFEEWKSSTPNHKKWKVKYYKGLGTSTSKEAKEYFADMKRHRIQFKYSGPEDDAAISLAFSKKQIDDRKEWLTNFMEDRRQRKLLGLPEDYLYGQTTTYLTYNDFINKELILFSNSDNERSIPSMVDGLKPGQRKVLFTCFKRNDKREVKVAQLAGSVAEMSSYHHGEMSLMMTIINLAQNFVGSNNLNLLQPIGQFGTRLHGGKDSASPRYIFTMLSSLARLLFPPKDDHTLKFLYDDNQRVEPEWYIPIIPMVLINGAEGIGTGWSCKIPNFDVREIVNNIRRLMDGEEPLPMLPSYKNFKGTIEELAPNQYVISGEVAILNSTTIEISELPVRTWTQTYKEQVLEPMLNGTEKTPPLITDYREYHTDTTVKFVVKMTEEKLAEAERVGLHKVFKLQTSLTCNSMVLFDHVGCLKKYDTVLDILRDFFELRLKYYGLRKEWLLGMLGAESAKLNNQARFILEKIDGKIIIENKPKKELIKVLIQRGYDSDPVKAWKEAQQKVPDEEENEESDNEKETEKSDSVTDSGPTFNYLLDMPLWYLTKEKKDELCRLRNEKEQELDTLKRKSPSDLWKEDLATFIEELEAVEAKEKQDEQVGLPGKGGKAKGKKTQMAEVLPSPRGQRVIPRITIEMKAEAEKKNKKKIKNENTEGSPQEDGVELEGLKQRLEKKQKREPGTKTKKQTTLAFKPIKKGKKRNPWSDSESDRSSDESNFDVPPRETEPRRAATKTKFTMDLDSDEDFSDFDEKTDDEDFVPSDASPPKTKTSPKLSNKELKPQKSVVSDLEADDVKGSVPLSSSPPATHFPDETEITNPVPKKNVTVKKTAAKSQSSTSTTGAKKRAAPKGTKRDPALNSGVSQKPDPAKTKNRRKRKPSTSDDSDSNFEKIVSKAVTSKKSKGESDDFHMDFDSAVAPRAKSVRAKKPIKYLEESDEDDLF
Test [2] relates to HCT-15. Description: Antiproliferative activity against human HCT15 cells after 72 hrs by EZ-CYTOX reagent based assay. Type of test: functional, cell-based. The following applies: HCT-15, 72 h.
For test [3], the target named is DNA topoisomerase 2-alpha (Homo sapiens) (UniProt P11388). The experiment in a line: Inhibition of human topoisomerase 2-alpha using supercoiled pBR322 plasmid DNA as substrate at 20 uM after 30 mins by agarose gel electrophoresis method relative to etoposide.
For test [4], the target named is T1, DNA topoisomerase 1 (Homo sapiens) (UniProt P11387).
T1 sequence (whole entry): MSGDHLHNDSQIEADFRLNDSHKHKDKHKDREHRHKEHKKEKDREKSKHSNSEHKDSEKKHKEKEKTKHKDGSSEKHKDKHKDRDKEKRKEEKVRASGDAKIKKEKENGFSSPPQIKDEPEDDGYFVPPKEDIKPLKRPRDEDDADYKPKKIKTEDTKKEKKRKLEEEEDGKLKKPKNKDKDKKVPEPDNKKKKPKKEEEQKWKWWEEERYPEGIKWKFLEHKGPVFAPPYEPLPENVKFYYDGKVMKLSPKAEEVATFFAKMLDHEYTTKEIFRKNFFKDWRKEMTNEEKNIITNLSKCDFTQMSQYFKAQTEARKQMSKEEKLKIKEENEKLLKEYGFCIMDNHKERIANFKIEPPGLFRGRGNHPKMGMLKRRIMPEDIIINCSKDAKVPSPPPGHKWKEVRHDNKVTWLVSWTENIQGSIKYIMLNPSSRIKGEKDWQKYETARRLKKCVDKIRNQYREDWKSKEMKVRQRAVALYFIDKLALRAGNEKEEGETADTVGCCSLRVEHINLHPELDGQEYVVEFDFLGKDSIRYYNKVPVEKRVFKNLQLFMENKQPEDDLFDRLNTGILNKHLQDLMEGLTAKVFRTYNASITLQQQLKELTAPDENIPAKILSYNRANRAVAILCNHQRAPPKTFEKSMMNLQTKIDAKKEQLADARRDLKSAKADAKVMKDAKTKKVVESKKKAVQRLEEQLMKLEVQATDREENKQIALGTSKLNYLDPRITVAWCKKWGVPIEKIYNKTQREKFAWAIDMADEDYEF
Description: Inhibition of human topoisomerase 1 using supercoiled pBR322 plasmid DNA as substrate at 100 uM after 30 mins by agarose gel electrophoresis method relative to control.

In test [5] the test system is Calf thymus DNA. The experiment in a line: Inhibition of EtBr binding to calf thymus DNA up to 40 uM by fluorescence spectroscopy. As to conditions: Bos taurus. Format: nucleic-acid assay.
In test [6] the target is DNA topoisomerase 2-alpha (Homo sapiens) (UniProt P11388). Description: Inhibition of human topoisomerase 2-alpha using supercoiled pBR322 plasmid DNA as substrate at 100 uM after 30 mins by agarose gel electrophoresis method relative to control.
Test [7] has as its system HeLa. The experiment in a line: Antiproliferative activity against human HeLa cells after 72 hrs by EZ-CYTOX reagent based assay. Format: functional, cell-based.
Test [8] has as its target T1, DNA topoisomerase 1 (Homo sapiens). Description: Inhibition of human topoisomerase 1 using supercoiled pBR322 plasmid DNA as substrate at 20 uM after 30 mins by agarose gel electrophoresis method relative to control.
Test [9] addresses DNA topoisomerase 2-alpha (Homo sapiens) (UniProt P11388). The experiment in a line: Inhibition of human topoisomerase 2-alpha using supercoiled pBR322 plasmid DNA as substrate at 20 uM after 30 mins by agarose gel electrophoresis method relative to control.
In test [10] the test system is T47D. The experiment in a line: Antiproliferative activity against human T47D cells after 72 hrs by EZ-CYTOX reagent based assay. Type of test: functional, cell-based.

On to `O=C1c2ccccc2-c2nc(-c3cccc(O)c3)cc(-c3ccc(O)cc3)c21`, for which the fold change (FC) in test [1] fell in the range of 1.33 to 1.42; in test [3], 1.88 to 1.89. The IC50 in test [2] is 9.51 µM; in test [7], over 50 µM; in test [10], 1.54 µM. The inhibition is 42.6% in [4]; “Dose-dependent effect” in [5]; 100% in test [6]; 35.4% in [8]; 93.7% in test [9].

For orientation: IC50 means the concentration that inhibits the measured activity by half. Lower therefore signals inhibition by little substance. In general, inhibition refers to the relative decrease from the control value, in per cent.
